Assay results reported in PMC11802874, “The hypolipidemic effect of MI-883, the combined CAR agonist/ PXR antagonist, in diet-induced hypercholesterolemia model” (Nature Communications, 2025).
“And” between values parts separate entries of the source, which are not always exact repeats. Equal values may be shown once.

Assays:
[1] = biological target: T1, PXR/MED1 (Homo sapiens, UniProt O75469); assay: Mammalian two-hybrid PXR/coactivator MED1 recruitment, HepG2; assay type: cell-based; set-up: key: firefly/Metridia luciferase activity ratio (normalized)
T1 construct: PXR-LBD (residues 108–434); expressed in transfected cells; host or cells: HepG2
Experimental: The GAL4-dependent pGL4-G5, harboring a pentamer of GAL4 binding sites in front of the E1b promoter was described before.
Transient batch transfection of HepG2 cells was done as described above. […] All transfections included 0.01 µg pMetLuc2control per well for normalization of firefly luciferase reporter activities. After overnight incubation with the transfection mixtures, cells were treated with chemicals in a volume of 100 µl of cell culture medium. […] Firefly luciferase activity was measured in 10 µl of cell lysates, and Metridia luciferase activity was analyzed in 10 µl of medium supernatant, both as described before. Results were normalized by dividing firefly luciferase activity by Metridia luciferase activity measured from the same well. Measurements of samples were repeated several times (n ≥ 3).

[2] = tested on: humanized PXR-CAR-CYP3A4/3A7 mice, liver; assay: RT-qPCR and Western blotting of liver samples (HFD study); assay type: in vivo, mouse
Experimental: RT-qPCR expression studies were performed on liver samples from eleven humanized PXR-CAR-CYP3A4/3A7 mice that were fed a high-fat diet and treated with 5 mg/kg MI-883 three times per week for four weeks. Specific TaqMan probes were used, following the protocol described in Supplementary Table S3.
Western blotting experiments have been performed in BioRad instruments with BioRad precasted gels and reagents. Antibodies are listed in Supplementary Table S4. Densitometry has been done using ChemiDoc™ MP Imaging System and software (BioRad, Hercules, USA). Data are presented as relative protein expression to control samples. For protein expression quantification, areas in histograms have been calculated and related to a reference protein.

[3] = Repeated dose 28-day oral toxicity study in rats (OECD 407, non-GLP); assay type: in vivo; details: rat, in vivo, 10 mg/kg; 28 days per os, rats
Experimental: (§1) A repeated dose 28-day oral toxicity study in Rats (Non–GLP Study) was carried out according to OECD Guideline for Testing of Chemicals No. 407 and relevant Test Facility SOPs at the Institute of Physiology, Academy of Sciences, Czech Republic as a service. The report is available after request. […] No clinical changes were observed during the administration period or the recovery period in the two selected groups. […]

[4] = tested on: rats; assay: as above; assay type: in vivo; details: up to 10 mg/kg
Experimental: as §1

[5] = biological target: FXR (Homo sapiens, UniProt Q96RI1); assay: Luciferase reporter gene assay FXR, HepG2
Description: (§2) Gal4-LBD constructs of tested nuclear receptors have been used together with pGL4.31[luc2P/GAL4UAS/Hygro] luciferase reporter construct and pRL-TK Renilla expression vector (both from Promega, Hercules, USA) in HepG2 cells transfected with Lipofectamine 2000 or 3000 reagents. For GRα and FXR receptors, full-length expression vectors have been used with pGRE-luc or pFXRE-luc luciferase constructs. For the aryl hydrocarbon receptor (AhR), p1A1-luc construct was used with only pRL-TK vector for transfection normalization. A dual reporter assay (Promega, Hercules, USA) was used to analyze both firefly and Renilla luciferase activities.
(§3) Gal4-LBD constructs of tested nuclear receptors have been used together with pGL5-luc luciferase reporter construct and pRL-TK Renilla expression vector in HepG2 cells transfected with Lipofectamine 2000 or 3000 reagents. For GRα and FXR receptors, full-length expression vectors have been used with pGRE-luc or pFXRE-luc luciferase constructs. For the aryl hydrocarbon receptor (AhR), p1A1-luc construct was used with only pRL-TK vector for transfection normalization. […] Bars represent means±S.D. (n=3).

[6] = biological target: THα (Homo sapiens, UniProt P10827); assay: Luciferase reporter gene assay THα, HepG2
Description: as §2, §3

[7] = biological target: aryl hydrocarbon receptor (AhR) (Homo sapiens, UniProt P35869); assay: Luciferase reporter gene assay AhR (p1A1-luc), HepG2
Description: The luciferase reporter gene assays for FXR, LXRα, LXRβ, THα, GRα, PPARα, PPARδ/β, PPARγ, AhR, VD, ERα, ERβ and mouse Car are described in our recent paper[19]
as §2, §3

[8] = tested on: primary human hepatocytes (PHH); assay: RT-qPCR mRNA expression in 2D primary human hepatocytes; details: for CYP2B6 mRNA, RT-qPCR, PHH (Fig. 1g), replicates: ctrl = 1
Description: The cells were cultivated as 2D monolayers according to the manufacturer’s protocol.
RT-qPCR was used to examine gene expression in 2D and 3D PHH, HepaRG cells, or in mouse liver or intestine (ileum) samples as we have described before[60]–[62].

[9] = FigS13, individual animals, relative to control
[10] = HFD study, Western blotting, form not given
[11] = hPXR/hCAR/hCYP3A4/7 mice, relative to control, individual animals
[12] = MI-883 1 μM, 24 h, one value per donor
[13] = single agent 5 μM: MI-883, CITCO (5 μM) alone

T1 sequence (O75469 108-434): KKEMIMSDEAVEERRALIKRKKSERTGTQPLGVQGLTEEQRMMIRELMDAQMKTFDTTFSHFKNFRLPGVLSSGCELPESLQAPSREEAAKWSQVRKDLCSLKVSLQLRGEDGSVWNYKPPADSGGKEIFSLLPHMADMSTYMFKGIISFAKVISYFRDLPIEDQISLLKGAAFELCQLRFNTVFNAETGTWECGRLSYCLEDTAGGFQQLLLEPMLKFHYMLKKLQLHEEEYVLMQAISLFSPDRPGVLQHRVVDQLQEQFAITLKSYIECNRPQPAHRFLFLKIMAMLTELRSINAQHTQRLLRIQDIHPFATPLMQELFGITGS
FXR, sequence (Q96RI1 whole entry): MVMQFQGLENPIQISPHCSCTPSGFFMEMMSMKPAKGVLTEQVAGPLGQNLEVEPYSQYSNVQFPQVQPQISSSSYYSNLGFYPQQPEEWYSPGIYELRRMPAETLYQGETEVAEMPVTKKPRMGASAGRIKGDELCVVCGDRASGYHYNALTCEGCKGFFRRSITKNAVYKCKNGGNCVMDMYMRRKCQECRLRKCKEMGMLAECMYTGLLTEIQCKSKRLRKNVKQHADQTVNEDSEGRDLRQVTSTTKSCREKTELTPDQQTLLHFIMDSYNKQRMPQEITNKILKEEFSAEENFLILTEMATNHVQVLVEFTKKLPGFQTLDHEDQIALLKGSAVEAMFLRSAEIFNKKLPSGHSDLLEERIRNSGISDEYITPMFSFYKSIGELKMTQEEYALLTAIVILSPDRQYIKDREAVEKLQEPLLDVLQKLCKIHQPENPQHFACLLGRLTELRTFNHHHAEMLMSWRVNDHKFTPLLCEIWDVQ
aryl hydrocarbon receptor (AhR), sequence (P35869 11-848): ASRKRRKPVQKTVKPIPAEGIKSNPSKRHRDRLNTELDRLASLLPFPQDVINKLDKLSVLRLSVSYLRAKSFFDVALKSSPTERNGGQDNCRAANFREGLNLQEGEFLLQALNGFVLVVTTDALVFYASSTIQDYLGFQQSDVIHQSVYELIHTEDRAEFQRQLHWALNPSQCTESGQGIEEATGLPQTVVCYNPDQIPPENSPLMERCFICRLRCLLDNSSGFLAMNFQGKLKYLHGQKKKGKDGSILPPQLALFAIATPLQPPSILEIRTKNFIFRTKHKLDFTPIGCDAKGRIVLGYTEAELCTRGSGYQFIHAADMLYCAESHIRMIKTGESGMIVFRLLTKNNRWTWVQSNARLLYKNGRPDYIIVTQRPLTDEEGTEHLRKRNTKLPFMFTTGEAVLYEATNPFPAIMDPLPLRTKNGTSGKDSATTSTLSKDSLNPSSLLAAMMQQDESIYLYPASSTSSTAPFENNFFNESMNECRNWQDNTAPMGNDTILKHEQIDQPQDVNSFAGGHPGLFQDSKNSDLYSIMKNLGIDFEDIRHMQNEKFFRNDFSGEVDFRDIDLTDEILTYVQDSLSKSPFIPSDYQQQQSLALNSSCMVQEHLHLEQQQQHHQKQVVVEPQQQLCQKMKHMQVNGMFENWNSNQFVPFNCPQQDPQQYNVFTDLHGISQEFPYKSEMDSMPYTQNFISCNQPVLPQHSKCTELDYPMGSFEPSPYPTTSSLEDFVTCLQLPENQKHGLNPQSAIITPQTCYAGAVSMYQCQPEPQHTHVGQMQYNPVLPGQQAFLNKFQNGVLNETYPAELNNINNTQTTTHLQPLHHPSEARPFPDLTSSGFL
THα, sequence (P10827 163-410 isoform P10827-2 limits assumed): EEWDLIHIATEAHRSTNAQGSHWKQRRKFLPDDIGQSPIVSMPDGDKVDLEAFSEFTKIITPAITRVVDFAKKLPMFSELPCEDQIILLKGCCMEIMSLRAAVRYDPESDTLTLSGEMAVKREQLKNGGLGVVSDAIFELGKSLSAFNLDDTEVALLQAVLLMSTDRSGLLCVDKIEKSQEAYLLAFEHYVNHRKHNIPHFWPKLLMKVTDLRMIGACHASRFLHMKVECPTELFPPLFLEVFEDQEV

NC(=O)c1cc(Cn2cc(-c3c(-c4ccc(Cl)cc4)nc4cc(F)ccn34)nn2)ccc1Cl [MI-883, 2-chloro-5-((4-(2-(4-chlorophenyl)-7-fluoroimidazo[1,2-a]pyridin-3-yl)-1H-1,2,3-triazol-1-yl)methyl)benzamide]
PXR/DRIP2025 (MED1) two-hybrid activity, replicates ([1]; MI-883 30 μM): 0.42 and 0.46 and 0.18 and 0.3 and 0.2 | PXR/DRIP2025 (MED1) two-hybrid activity, replicates ([1]; single agent: RIF (10 µM), MI-883 10 μM): 0.33 and 0.2 and 0.19 and 0.27 and 0.23 | Acaca mRNA (RT-qPCR) [2, 9]: 0.62 and 1.24 and 0.73 and 1.27 and 0.85 and 0.6 and 0.7 and 0.51 and 0.8 and 0.28 and 0.34 | Cd36 mRNA (RT-qPCR) [2, 9]: 0.88 and 1.19 and 0.76 and 1.31 and 0.8 and 0.72 and 1.01 and 0.19 and 1.11 | Cpt1a mRNA (RT-qPCR) [2, 9]: 1.05 and 0.92 and 2.34 and 0.85 and 1.37 and 0.77 and 1.27 and 0.96 and 1.08 and 0.81 and 0.88 | FaSN mRNA (RT-qPCR) [2, 9]: 0.51 and 0.56 and 0.8 and 0.98 and 0.62 and 0.37 and 0.54 and 0.38 and 0.73 and 0.14 and 0.71 | Plin2 mRNA (RT-qPCR) [2, 9]: 0.41 and 0.63 and 0.49 and 0.9 and 0.62 and 0.85 and 0.58 and 0.57 and 1 and 0.16 and 0.74 | Pnpla3 mRNA (RT-qPCR) [2, 9]: 1.72 and 1.4 and 0.48 and 1.37 and 0.96 and 0.84 and 0.35 and 0.25 and 1.49 and 0.03 and 1.94 | Ppara mRNA (RT-qPCR) [2, 9]: 0.97 and 0.71 and 1.1 and 0.18 and 1.04 | Scd1 mRNA (RT-qPCR) [2, 9]: 0.36 and 0.67 and 0.33 and 0.76 and 0.51 and 0.6 and 0.47 and 0.34 and 0.52 and 0.56 | liver Scd1 mRNA, RT-qPCR (n = 11) ([2]; HFD study, P = 0.0036): significantly downregulated | liver Fasn and Plin2 mRNA, RT-qPCR ([2]; HFD study, P = 0.007 and P = 0.018): significantly downregulated | liver Cyp7a1 and Cyp8b1 proteins ([2]; HFD study, Western blotting): significant upregulation | liver Insig1 prot, individual samples ([2]; HFD study, Western blotting): 3.8 and 3.3 and 3.1 and 2.9 | liver Srebp1 120 kDa protein or mature nuclear fragments (mSrebp1) ([2]; HFD study, Western blotting): did not see any significant decrease | liver Mrp4 prot, individual samples ([2]; HFD study, Western blotting, relative to control): 1.89 and 1.6214 and 2.1487 and 1.571 | liver Srebp1/2 protein, lower block, first control/MI-883 pair [2, 10]: 1.8 and 1.6 and 1.7 and 1.1 | liver Srebp1/2 protein, lower block, second control/MI-883 pair [2, 10]: 0.6 and 0.7 and 0.5 | liver Srebp1/2 protein, upper block, second control/MI-883 pair [2, 10]: 1.7 and 1.5 and 1.1 and 1.2 | liver mature nuclear mSrepb2 protein ([2]; HFD study, effect is not significant): may decrease | liver Cyp7a1 mRNA, RT-qPCR, individual animals ([2]; HFD study, relative to control): 0.7586 and 0.4023 and 0.5977 and 0.2759 and 0.5402 and 0.954 and 0.4943 and 0.9885 and 0.5172 | liver Insig1 mRNA, RT-qPCR, individual animals ([2]; HFD study, relative to control): 1.68 and 2.22 and 0.72 and 0.43 and 1.13 and 1.06 and 1.18 and 2.34 and 1.52 and 1.27 and 0.68 | liver Mrp4 mRNA, RT-qPCR, individual animals ([2]; HFD study, relative to control): 4.091 and 6.648 and 4.182 and 4.443 and 4.045 and 2.545 and 4.341 and 10.0455 and 5.239 and 3.409 | liver Srebf1 mRNA, RT-qPCR, individual animals ([2]; HFD study, relative to control): 0.7619 and 0.9619 and 0.5619 and 0.6 and 1.105 and 0.7714 and 0.7143 and 0.8857 and 0.819 and 0.4571 | liver Sult2a1 mRNA, RT-qPCR, individual animals ([2]; HFD study, relative to control): 4.077 and 3.288 and 1.404 and 2.538 and 0.8846 and 1.615 | liver Ugt1a1 mRNA, RT-qPCR, individual animals ([2]; HFD study, relative to control): 1.852 and 2.477 and 1.455 and 1.284 and 1 and 1.58 and 1.148 and 2.057 and 2 and 2.17 and 0.8977 | liver Ugt2b34 mRNA, RT-qPCR, individual animals ([2]; HFD study, relative to control): 1.412 and 2.106 and 2.063 and 1.118 and 1.379 and 0.7926 | liver murine Gadd45b mRNA and Meg3 lncRNA ([2]; PXR-CAR-CYP3A4/3A7 mice (Fig. 7a)): statistically significant upregulation | Bcl2 expression (Fig. 7a) [2, 11]: 0.87 and 0.95 and 0.93 and 1.25 and 1.35 and 0.29 | Cdkn1a expression (Fig. 7a) [2, 11]: 1.39 and 0.41 and 0.43 and 0.27 and 1.57 and 0.35 | Foxm1 expression (Fig. 7a) [2, 11]: 2.03 and 1.26 and 1.41 and 1.28 and 1.37 and 0.42 | Gadd45b expression (Fig. 7a) [2, 11]: 2.07 and 7.83 and 4.06 and 7.82 and 5.69 and 2.44 | Mcl1 expression (Fig. 7a) [2, 11]: 0.58 and 1.09 and 0.6 and 1.16 and 0.84 and 0.26 | Meg3 expression (Fig. 7a) [2, 11]: 2.24 and 7.88 and 3.05 and 3.57 and 2.39 | Mki67 expression (Fig. 7a) [2, 11]: 1.7 and 1.18 and 1.43 and 1.11 and 1.31 and 0.71 | Pcna expression (Fig. 7a) [2, 11]: 0.78 and 1.24 and 0.66 and 0.89 and 0.57 and 0.36 | NOAEL at 28 days [3]: > 10 mg/kg | toxicity in 28-day oral study in rats [4]: no toxicity | toxicity in 28-day oral study in rats ([4]; listed as MI833): No clinical signs of toxicity | NRs assays: FXR (relative to ctrl, replicates) [5]: 0.85 and 0.88 and 1.01 | NRs assays: TH (GL4-hTRa) (relative to ctrl, replicates) [6]: 1.64 and 1.08 and 1.31 | NRs assays: AhR (relative to ctrl, replicates) [7]: 0.69 and 0.85 and 0.64 | CYP2B6 mRNA, RT-qPCR, PHH (Fig. 1g), replicates ([8]; 1 mM): 6.40 and 7.90 and 6.20 | CYP2B6 mRNA, RT-qPCR, PHH (Fig. 1g), replicates ([8]; 5mM): 11.50 and 14.10 and 10.70 | CYP2B6 mRNA in PHH 2 donors (Fig. 3c) ([8]; MI-883 1 μM + CITCO (5 μM)): 18.7857 and 11.1982 | CYP3A4 mRNA in PHH 2 donors (Fig. 3c) ([8]; MI-883 1 μM + CITCO (5 μM)): 1.145 and 0.8997 | CYP2B6 mRNA in PHH 2 donors (Fig. 3c) ([8]; MI-883 1 μM + Rif (10 μM)): 16.0019 and 18.4588 | CYP2B6 mRNA in PHH 2 donors (Fig. 3c) [8, 12]: 9.7833 and 10.0129 | CYP3A4 mRNA in PHH 2 donors (Fig. 3c) [8, 12]: 1.152 and 1.035 | CYP2B6 mRNA in PHH 2 donors (Fig. 3c) ([8]; MI-883 5 μM + CITCO (5 μM)): 4.985 and 8.159 | CYP2B6 mRNA in PHH 2 donors (Fig. 3c) ([8]; MI-883 5 μM + Rif (10 μM)): 9.78 and 14.5843 | CYP2B6 mRNA in PHH 2 donors (Fig. 3c) ([8]; MI-883 10 μM + CITCO (5 μM)): 1.856 and 2.089 | CYP3A4 mRNA in PHH 2 donors (Fig. 3c) ([8]; MI-883 10 μM + CITCO (5 μM)): 0.35 and 0.4582 | CYP2B6 mRNA in PHH 2 donors (Fig. 3c) ([8]; MI-883 10 μM + Rif (10 μM)): 2.674 and 5.134 | CYP3A4 mRNA in PHH 2 donors (Fig. 3c) ([8]; MI-883 10 μM + Rif (10 μM)): 2.14 and 3.421 | CYP2B6 mRNA in PHH 2 donors (Fig. 3c) [8, 13]: 17.2158 and 12.1241 | CYP3A4 mRNA in PHH 2 donors (Fig. 3c) [8, 13]: 0.6604 and 0.7133 | CYP3A4 mRNA in PHH 2 donors (Fig. 3c) ([8]; single agent 10 μM: MI-883, Rif (10 μM) alone): 0.3215 and 0.4561
